Experiments:
MCF-7 cells = assay: DAPI staining, confocal microscopy (apoptosis); assay type: cell-based, human; conditions: growing cells treated; 100 μM (FIG. 17)
Procedure: (§1) OdDHL induces apoptosis of BC cells (a) MCF-7 cells were cultured in full medium alone or in the presence of 1001M OdDHL or 100 μM OHHL. […] Left-hand panels show DAPI, right-hand panels show the corresponding phase contrast and middle panels the image overlays. (b) MDA-MB-468 cells were cultured in full medium alone or in the presence of 100 μM OdDHL or 100 μM OHHL. After 18 hours cells were fixed, stained and examined as in (a). (c) BR293, MCF-7 and MDA-MD-468 cells were cultured in full medium alone (lanes 1, 3, 5) or in the presence of 100 μM OdDHL (lanes 2, 4, 6) or 400 μM etoposide (lane 7). After 18 hours cells were lysed and analysed for PARP cleavage by Western blotting with an anti-PARP antibody. Full length PARP is labelled and the lower arrow indicates the major caspase cleavage fragment.

MDA-MB-468 cells [1] = assay: DAPI staining, confocal microscopy (apoptosis); assay type: cell-based, human; conditions: growing cells treated; 100 μM (FIG. 17)
Procedure: as §1, with “After 18 hours cells were fixed, stained and examined as in (a).” left out

murine STAT3 = assay: STAT3-dependent luciferase reporter (SIE2-luc) in transfected COS-1 cells; assay type: cell-based; conditions: COS-1 cells transfected with murine STAT3
MDA-MB-468 cells [2] = assay: Cell proliferation assay (cell counting); assay type: cell-based, human; conditions: over a 48-hour period
Procedure: Equal numbers of BR293 and MDA-MB-468 cells were seeded in MEM containing 10% FCS into 10 cm dishes. […]. For the 48 time points, fresh medium containing the appropriate inhibitor was applied to the cells after 24 hours. Controls were allowed to grow for 48 hours in the absence of inhibitor. Thereafter, all the cells were washed twice with ice cold PBS, harvested and counted under a phase-contrast microscope. Values are expressed as averages+S.D. (n=3).
(§2) Equal numbers of BR293, MCF-10F, MCF-7, MDA-MB-468, HKEK293 and COS1 cells were seeded in the appropriate growth medium into 10 cm dishes. Cells were allowed to grow in the presence of various concentrations of OdDHL or OHHL for 24 or 48 hours. For the 48-hour time points, fresh medium containing the appropriate inhibitor was applied to the cells after 24 hours. Controls were allowed to grow for 48 hours in the absence of inhibitor. Thereafter, all the cells were washed twice with ice cold PBS, harvested and counted under a phase-contrast microscope. Values are expressed as averages ±S.D. (n=3).

COS1 cells = assay: Cell proliferation assay (cell counting); assay type: cell-based, simian; conditions: cells expressing low levels of STAT proteins; 48 hours
Procedure: as §2

[3] = test system: poly ADP-ribose polymerase (PARP); assay: PARP cleavage by Western blotting; assay type: cell-based, human; conditions: 100 μM, 18 hours
Procedure: OdDHL induces apoptosis of BC cells (a) MCF-7 cells were cultured in full medium alone or in the presence of 1001M OdDHL or 100 μM OHHL. After 18 hours cells were fixed, stained with DAPI and examined by confocal microscopy. Left-hand panels show DAPI, right-hand panels show the corresponding phase contrast and middle panels the image overlays. (b) MDA-MB-468 cells were cultured in full medium alone or in the presence of 100 μM OdDHL or 100 μM OHHL. After 18 hours cells were fixed, stained and examined as in (a). (c) BR293, MCF-7 and MDA-MD-468 cells were cultured in full medium alone (lanes 1, 3, 5) or in the presence of 100 μM OdDHL (lanes 2, 4, 6) or 400 μM etoposide (lane 7). After 18 hours cells were lysed and analysed for PARP cleavage by Western blotting with an anti-PARP antibody. Full length PARP is labelled and the lower arrow indicates the major caspase cleavage fragment.

p38^MAPK = assay: p38 MAPK phosphorylation in anisomycin-treated cells (Western blotting); assay type: cell-based, human; conditions: BR293 cells treated with anisomycin
Procedure: ERKs are unaffected by OdDHL (a) BR293 cells were serum-starved (lane 1) or starved and stimulated with TPA for 30 min alone (lane 2) or in the presence of increasing concentrations of OdDHL (lanes 3-6) or 100 μM OHHL (lane 7). Cell lysates were prepared and analysed by Western blotting for ERK phosphorylation with an antibody specific for phospho-ERK½ (upper panel) and for ERK content with an antibody against ERKs (lower panel). (b) BR293 cells were serum-starved (lane 1) or starved and stimulated with Anisomycin for 30 min alone (lane 2) or in the presence of increasing concentrations of OdDHL (lanes 3-6) or 100 μM OHHL (lane 7). Cell lysates were prepared and analysed by Western blotting for JNK/SAPK phosphorylation with an antibody specific for phospho-JNKs (upper panel) and for SAPK/JNK content with an antibody against JNKs (lower panel). (c) BR293 cells were treated as described in (b) and lysates were analysed by Western blotting for p38^MAPK phosphorylation with an antibody specific for phospho-p38 (upper panel) and for p38 content with an antibody against p38 (lower panel).

STAT3 = assay: EGF-induced STAT3 phosphorylation (Western blotting, Y705); assay type: cell-based, human; conditions: MDA-MB-468 cells; co-treatment 100 μM
Procedure: EGF-R was immunoprecipitated from cell lysates and analysed by Western blotting tyrosine phosphorylation with an anti phosphotyrosine antibody (upper panel, top) and EGF-R content with an anti-EGF-R antibody (lower panel, top). Cell lysates were analysed in parallel for STAT3 phosphorylation with an antibody specific for STAT3 phosphorylated on Y705 (upper panel, bottom) and for STAT3 content with an antibody for STAT3 (lower panel, bottom). […] The inclusion of an anti-STAT3 antibody in duplicate binding reactions (even lanes) identifies STAT3-containing heterodimers (3:1), as indicated to the right of the panel. (c) COS-1 cells were transfected with an expression vector for STAT3, a STAT3-responsive luciferase reporter (SIE2-luc) and a control gene for β-galactosidase. […] After 6 hours cells were harvsted and reporter gene expression analysed. Results are normalised against β-galactosidase values and expressed as averages +/−SD (n=3).

SMILES	nuclear integrity by DAPI staining (MCF-7 cells)	nuclear integrity by DAPI staining (MDA-MB-468 cells [1])	EGF-stimulated STAT3-dependent reporter gene expression, effect of co-treatment (murine STAT3)	inhibition of proliferation (MDA-MB-468 cells [2])	effect on proliferation (COS1 cells)	PARP cleavage ([3]; BR293 cells)	PARP cleavage ([3]; MCF-7 cells)	PARP cleavage ([3]; MDA-MB-468 cells, compared with 400 μM etoposide)	p38^MAPK phosphorylation (p38^MAPK)	STAT3 phosphorylation in response to EGF (STAT3)
CCCC(=O)CC(=O)N[C@H]1CCOC1=O [OHHL, N-(3-oxohexanoyl)-L-homoserine lactone, reference compound]	unaffected	unaffected	had no effect	–	–	–	–	–	–	–
CCCCCCCCCC(=O)CC(=O)N[C@H]1CCOC1=O [OdDHL, N-(3-oxo-dodecanoyl)-L-homoserine lactone]	nuclear disruption	nuclear disruption	augmented	70%-80%	unaffected	characteristic cleavage fragment was detected	induced PARP cleavage	to the same extent as etoposide	modest but reproducible inhibition	augmented
